System: patients with refractory metastatic colorectal cancer (mCRC)
Experiment: PFS, OS and disease control in the testing (validation) cohort of refractory mCRC patients receiving TAS-102 (n=129, Italy), by baseline characteristics, SNP genotype and toxicity
Assay type: in vivo, human
Settings: validation cohort
Experimental: All patients underwent the treatment in salvage-line setting. […]
(§1) Genomic DNA was extracted from peripheral whole blood in patients of all cohorts using the QIAmp Kit (Qiagen, Valencia, Calif., USA) according to the manufacturer's protocol (www.qiagen.com). The candidate SNPs were genotyped using PCR-based direct DNA sequence analysis by ABI 3100A Capillary Genetic Analyzer and Sequencing Scanner v1.0 (Applied Biosystems). Amplification of extracted DNA was carried out using both forward and reverse primers for each gene polymorphism as shown in Table 1. […] The investigators analyzing SNPs were blinded to the clinical data of the study patients.
The primary endpoint in this study was progression-free survival (PFS), and the secondary endpoints were overall survival (OS) and disease control rate (DCR). PFS was calculated from the date of starting treatment to the first observation of disease progression or death from any cause. If a patient had no disease progression or death, PFS was censored at the date of last follow up. OS was calculated from the date of starting treatment until the date of death from any cause or the date of the last follow-up, at which point OS was censored. The disease control rate (DCR) was defined as the proportion of patients who achieved a stable disease (SD) or […] according to RECISTv1.1. Chi-square test was used to examine the difference in baseline patient characteristics among the three cohorts. Allelic distribution of all SNPs by ethnicity for deviation from Hardy-Weinberg equilibrium and the allelic frequencies of SNPs were tested using the Chi-square tests with one degree of freedom. The associations between candidate SNPs and disease control, and toxicities were examined using contingency tables and Fisher's exact test. The associations of SNPs with PFS and OS were analysed using Kaplan-Meier curves and the log-rank test. Because the true mode of inheritance of candidate SNPs was not established yet, a codominant or dominant genetic model if appropriate was considered.
All patients underwent the treatment in salvage-line setting. […] In all patients, adverse events were graded according to the Common Terminology Criteria for Adverse Events, version 4.0. […]
as §1, with “tested” for “genotyped”, “Biosystems).” for “Biosystems). Amplification of extracted DNA was carried out using both forward and reverse primers for each gene polymorphism as shown in Table 1.”, “data.” for “data of the study patients.”
The primary endpoint in this study was progression-free survival (PFS), and the secondary endpoints were overall survival (OS) and disease control rate (DCR).

[1] = ATM rs609429 C/G vs C/C (Ref.), multivariable
[2] = ATM rs609429 C/G vs C/C (Ref.), univariate
[3] = ATM rs609429 G/G vs C/C (Ref.), multivariable
[4] = ATM rs609429 G/G vs C/C (Ref.), univariate
[5] = Adjuvant Oxa No vs Yes (Ref.), univariate
[6] = Adjuvant history No vs Yes (Ref.), univariate
[7] = Age group ≥61 vs <61 (Ref.), univariate
[8] = BRAF status Mutant vs Wild type (Ref.), univariate
[9] = CHEK2 rs2267130 Any C vs T/T (Ref.), multivariable
[10] = CHEK2 rs2267130 Any C vs T/T (Ref.), univariate
[11] = CHEK2 rs2267130 C/C vs T/T (Ref.), multivariable
[12] = CHEK2 rs2267130 C/C vs T/T (Ref.), univariate
[13] = CHEK2 rs2267130 T/C vs T/T (Ref.), multivariable
[14] = CHEK2 rs2267130 T/C vs T/T (Ref.), univariate
[15] = Grading 3 vs 1-2 (Ref.), univariate
[16] = LN metastasis No vs Yes (Ref.), univariate
[17] = Liver metastasis No vs Yes (Ref.), univariate
[18] = Lung metastasis No vs Yes (Ref.), univariate
[19] = Mucinous histology No vs Yes (Ref.), univariate
[20] = Number of metastases >2 vs ≤2 (Ref.), univariate

Substance: Trifluridine/tipiracil [TAS-102]
- Disease Control CR/PR/SD, patients n (%) (ATM rs609429 C/G): 20 (32%)
- Median PFS (95% CI) (ATM rs609429 C/G): 2.0 (1.9, 2.3) months
- PD, patients n (%) (ATM rs609429 C/G): 43 (68%)
- HR OS (95% CI) [1]: 0.71 (0.39, 1.30)
- HR PFS (95% CI) [1]: 0.77 (0.50, 1.20)
- HR OS (95% CI) [2]: 0.71 (0.40, 1.26)
- HR PFS (95% CI) [2]: 0.76 (0.50, 1.16)
- Disease Control CR/PR/SD, patients n (%) (ATM rs609429 G/G): 6 (40%)
- Median OS (95% CI) (ATM rs609429 G/G): 5.8 (2.7, 7.1+) months
- Median PFS (95% CI) (ATM rs609429 G/G): 2.0 (1.2, 6.1) months
- PD, patients n (%) (ATM rs609429 G/G): 9 (60%)
- HR OS (95% CI) [3]: 1.43 (0.56, 3.65)
- HR PFS (95% CI) [3]: 1.32 (0.67, 2.59)
- HR OS (95% CI) [4]: 0.82 (0.34, 2.00)
- HR PFS (95% CI) [4]: 0.85 (0.45, 1.63)
- Median OS (Adjuvant Oxa No): 5.8 months
- Median PFS (Adjuvant Oxa No): 1.9 months
- HR OS [5]: 1.17
- HR PFS [5]: 1.06
- Median OS (Adjuvant Oxa Yes): 8.5+ months
- Median PFS (Adjuvant Oxa Yes): 2.0 months
- Median OS (Adjuvant history No): 5.5 months
- Median PFS (Adjuvant history No): 1.9 months
- HR OS [6]: 1.23
- HR PFS [6]: 1.25
- Median OS (Adjuvant history Yes): 8.5+ months
- Median PFS (Adjuvant history Yes): 2.0 months
- Median OS (Age group <61): 4.4 months
- Median PFS (Age group <61): 1.9 months
- Median OS (Age group ≥61): 9.0 months
- Median PFS (Age group ≥61): 2.0 months
- HR OS [7]: 0.56
- HR PFS [7]: 0.61
- Median OS (BRAF status Mutant): 3.3 months
- Median PFS (BRAF status Mutant): 1.8 months
- HR OS [8]: 2.38
- HR PFS [8]: 1.40
- Median OS (BRAF status Wild type): 5.8 months
- Median PFS (BRAF status Wild type): 2.0 months
- Disease Control CR/PR/SD, patients n (%) (CHEK2 rs2267130 Any C): 29 (31%)
- Median OS (95% CI) (CHEK2 rs2267130 Any C): 5.5 (4.4, 8.7+) months
- Median PFS (95% CI) (CHEK2 rs2267130 Any C): 2.0 (1.8, 2.3) months
- PD, patients n (%) (CHEK2 rs2267130 Any C): 65 (69%)
- HR OS (95% CI) [9]: 0.70 (0.38, 1.30)
- HR PFS (95% CI) [9]: 1.05 (0.66, 1.67)
- HR OS (95% CI) [10]: 0.94 (0.52, 1.69)
- HR PFS (95% CI) [10]: 1.10 (0.71, 1.72)
- Disease Control CR/PR/SD, patients n (%) (CHEK2 rs2267130 C/C): 9 (29%)
- Median OS (95% CI) (CHEK2 rs2267130 C/C): 5.4 (3.9, 7.1+) months
- Median PFS (95% CI) (CHEK2 rs2267130 C/C): 2.0 (1.8, 2.4) months
- PD, patients n (%) (CHEK2 rs2267130 C/C): 22 (71%)
- HR OS (95% CI) [11]: 0.48 (0.21, 1.09)
- HR PFS (95% CI) [11]: 0.87 (0.49, 1.54)
- HR OS (95% CI) [12]: 0.95 (0.45, 2.00)
- HR PFS (95% CI) [12]: 1.08 (0.62, 1.86)
- Disease Control CR/PR/SD, patients n (%) (CHEK2 rs2267130 T/C): 20 (32%)
- Median PFS (95% CI) (CHEK2 rs2267130 T/C): 2.0 (1.7, 2.3) months
- PD, patients n (%) (CHEK2 rs2267130 T/C): 43 (68%)
- HR OS (95% CI) [13]: 0.83 (0.44, 1.58)
- HR PFS (95% CI) [13]: 1.17 (0.72, 1.91)
- HR OS (95% CI) [14]: 0.93 (0.50, 1.75)
- HR PFS (95% CI) [14]: 1.12 (0.69, 1.79)
- Disease Control CR/PR/SD, patients n (%) (CHEK2 rs2267130 T/T): 8 (24%)
- Median OS (95% CI) (CHEK2 rs2267130 T/T): 5.8 (3.7, 9.0+) months
- Median PFS (95% CI) (CHEK2 rs2267130 T/T): 1.9 (1.9, 2.0) months
- PD, patients n (%) (CHEK2 rs2267130 T/T): 26 (76%)
- Median OS (Grading 1-2): 9.0 months
- Median PFS (Grading 1-2): 2.1 months
- Median OS (Grading 3): 5.3 months
- Median PFS (Grading 3): 1.9 months
- HR OS [15]: 1.38
- HR PFS [15]: 1.15
- Median OS (LN metastasis No): 5.4 months
- Median PFS (LN metastasis No): 2.0 months
- HR OS [16]: 1.24
- HR PFS [16]: 0.99
- Median OS (LN metastasis Yes): 8.8+ months
- Median PFS (LN metastasis Yes): 2.0 months
- Median OS (Liver metastasis No): 8.7+ months
- Median PFS (Liver metastasis No): 2.4 months
- HR OS [17]: 0.69
- HR PFS [17]: 0.52
- Median OS (Liver metastasis Yes): 5.4 months
- Median PFS (Liver metastasis Yes): 1.9 months
- Median OS (Lung metastasis No): 4.1 months
- Median PFS (Lung metastasis No): 1.9 months
- HR OS [18]: 1.46
- HR PFS [18]: 1.62
- Median OS (Lung metastasis Yes): 8.8+ months
- Median PFS (Lung metastasis Yes): 2.1 months
- Median OS (Mucinous histology No): 9.0 months
- Median PFS (Mucinous histology No): 2.0 months
- HR OS [19]: 0.72
- HR PFS [19]: 0.97
- Median OS (Mucinous histology Yes): 5.5 months
- Median PFS (Mucinous histology Yes): 1.9 months
- Median OS (Number of metastases >2): 8.8+ months
- Median PFS (Number of metastases >2): 2.0 months
- HR OS [20]: 0.83
- HR PFS [20]: 1.18
- Median OS (Number of metastases ≤2): 5.5 months
- Median PFS (Number of metastases ≤2): 2.0 months
- Median OS (Performance status ECOG 0): 9.0 months
- Median PFS (Performance status ECOG 0): 2.0 months
- Median OS (Performance status ECOG 1+): 4.1 months
- Median PFS (Performance status ECOG 1+): 1.9 months

— patent US20190233884A1 (University of Southern California, priority 2016, published 2019)
